Test results: patent publication US6197575A, “Vascularized perfused microtissue/micro-organ arrays” (Massachusetts Institute of Technology, priority 1999, dated 2001)

How the values were obtained:
P450 1A1 = assay: EROD assay (7-ethoxyresorufin O-dealkylation) in perfused bioreactor chip of hepatocytes and endothelial cells; format: cell-based, rat
Method: Bioreactor constructs using an assay that measures the activity of one representative P450 isozyme, cytochrome P450 1A1, was evaluated. This enzyme is present in all mammalian species and is highly inducible by polycyclic aromatic hydrocarbons as well as other agents. 7-Ethoxyresorufin is a selective substrate of rat P450 1A1 which catalyzes its de-ethylation to the highly fluorescent resorufin. Subsequent to P450 1A1 catalyzed de-ethylation, resorufin can be exported from the cell or undergo phase II conjugation. There are two possible phase II conjugation products resulting from the enzyme catalyzed addition of sulfate or glucoronic acid to the 7-hydroxyl group of resorufin. Thus, from this assay one can quantitatively determine the activity of P450 1A1 and the phase II conjugation enzymes. […]
The 7-ethoxyresorufin O-dealkylation (EROD) assay involved dissolving the substrate into the chemically defined media (final concentration of 10-20 μM) and perfusing it through the tissue array. The effluent was collected in sequential fractions which then were analyzed by fluorescence detection for the presence of resorufin. Total conversion within each fraction was determined by incubating an aliquot from the fraction with enzymes that hydrolyze the phase II conjugates of resorufin back to the free alcohol. […]

cells = details: tethered to silicon substrates; cited from earlier work

Cc1ccc2cc3c(ccc4ccccc43)c3c2c1CC3 [3-methylcholanthrene]
increase in absolute level of resorufin formation (P450 1A1; bioreactor treated for final 24 hours in static culture, attomoles resorufin formed per minute per hepatocyte): approximately five

O=c1cc(-c2ccccc2)oc2c1ccc1ccccc12 [naphthoflavone]
enzyme activity (resorufin formation) in presence and after removal of inhibitor (P450 1A1; 20 μM inhibitor with 10 μM ethoxyresorufin, t=240-385 min): inhibited by the inclusion of a reversible inhibitor to the media and then recovered when the inhibitor was removed

Tethered EGF: epidermal growth factor (EGF) tethered to silicon substrates
biological activity after tethering (cells): retained full biological activity | stimulation of cells (cells): stimulate cells in a dose-dependent manner
